Test results: US20210276967A1 (OSPEDALE SAN RAFFAELE S.R.L., priority 2018, published 2021)

Tests used:
HBV genotype E = assay: Antiviral activity in HepG2 cells transfected with HBV genotype E plasmid, extracellular HBV DNA qPCR; assay type: cell-based; conditions: Hepatitis B virus, read-out: HBV inhibition EC50 (Mean ± StD)
Method: (§1) HepG2 hepatoma cells transfected with HBV plasmids corresponding to the different isolates were used to perform antiviral assay against different HBV genotypes. HBV plasmids were obtained by cloning fragment containing of 1.1-mer HBV genome into the SacI/SaII sites of pcDNA3.1zeo(−) plasmid (V86520, Thermofisher Scientific). The HepG2 cell line was maintained in DMEM, supplemented with 10% of FBS, 1% glutamine and 1% penicillin/streptomycin.
(§2) HBV inhibition activity was determined on different HBV genotypes. For this purpose plasmids pcDNA3.1Zeo(−)-HBV1.1 expressing HBV genotypes A, B, C, D, E were transfected in HepG2 cell line and extracellular HBV quantification was performed by direct qPCR as described above. In detail, cells were seeded at 20,000 cells/well in polylisine coated 96-multiwell plates and 24 h later HBV plasmids were transfected with lipofection using manufacturer's procedure (Lipofectamine 3000 Reagent, Thermofisher Scientific). Five hours after transfection cells were extensively washed with PBS and compounds were added in 8-point dose-response curve in 0.5% DMSO as described above. After 4 days of incubation at 37° C. cells were subjected to cell viability assays and extracellular HBV quantification, in order to evaluate both the cytotoxic potential and the anti-viral activity of compounds, as described above. […]

HBV genotype A = assay: Antiviral activity in HepG2 cells transfected with HBV genotype A plasmid, extracellular HBV DNA qPCR; assay type: cell-based; conditions: Hepatitis B virus, read-out: HBV inhibition EC50 (Mean ± StD)
Method: as §1, §2

HBV genotype C = assay: Antiviral activity in HepG2 cells transfected with HBV genotype C plasmid, extracellular HBV DNA qPCR; assay type: cell-based; conditions: Hepatitis B virus, read-out: HBV inhibition EC50 (Mean ± StD)
Method: as §1, §2

HBV genotype B = assay: Antiviral activity in HepG2 cells transfected with HBV genotype B plasmid, extracellular HBV DNA qPCR; assay type: cell-based; conditions: Hepatitis B virus, HepG2, read-out: HBV inhibition EC50 (Mean ± StD, μM)
Method: as §1, §2

HBV genotype D = assay: Antiviral activity in HepG2 cells transfected with HBV genotype D plasmid, extracellular HBV DNA qPCR; assay type: cell-based; conditions: Hepatitis B virus, read-out: HBV inhibition EC50 (Mean ± StD)
Method: as §1, §2

[1] = Hepatocytes stability, human; assay type: in vitro ADME; conditions: data not shown
Method: Hepatic metabolism is often a major contributor to drug clearance from the body. Pooled cryopreserved human hepatocytes (commercially available for example from Bioreclamation IVT, LiverPool 20-donor Human Hepatocytes Product. No. X008000) are thawed and re-suspended in Hepatocyte Culture Medium (HCM) complete (commercially available, as for example from Lonza, HBM Hepatocytes Basal Medium Catalog No. CC-3199+HCM SingleQuots Catalog No. CC-4182). Compounds are diluted into the cell suspension (2.5 μl/2.5 mL, 1 million cells/mL) from 3 mM stock solution in DMSO to give a 3 μM concentration (0.1% DMSO). 150 μl (×2) of this mixture are taken and transferred into a 96-deep-well plate containing an equal volume of quenching solution (100% acetonitrile plus 0.1% formic acid) for time 0 incubation. […]
Stability is determined based on analysis of the disappearance of the compound as a function of incubation time, using area ratio (analyte peak area vs internal standard peak area). The elimination constant k is calculated by plotting mean disappearance values on a semi-logarithmic scale and fitting with a best fit linear regression. […] When the half-life could not be calculated, data are reported as: <0.5 or >4 hours. Intrinsic clearance given in μl/min/million cells is calculated using the Equation: Clint=KV/N. Where K=0.693/t1/2, V=incubation volume (ml) and N=number of hepatocytes/sample.

[2] = Hepatocytes stability, mouse; assay type: in vitro ADME; conditions: data not shown

SMILES | EC50 (HBV genotype E) [nM] | EC50 (HBV genotype A) [nM] | EC50 (HBV genotype C) [nM] | EC50 (HBV genotype B) [µM] | EC50 (HBV genotype D) [nM] | stability in human hepatocytes [1] | stability in mouse hepatocytes [2]
Cc1cc(N)c(S(N)(=O)=O)cc1C(=O)Nc1cc(F)c(F)c(F)c1 [Example E17, 4-amino-2-methyl-5-sulfamoyl-N-(3,4,5-trifluorophenyl)benzamide] | 51.2 ± 13.6 | 58.2 ± 25.4 | 28.2 ± 10.8 | 0.0498 ± 0.0179 | 38.7 ± 11.1 |  | 
Nc1ccc(C(=O)Nc2cc(F)c(F)c(F)c2)cc1S(N)(=O)=O [Example E3, 4-amino-3-sulfamoyl-N-(3,4,5-trifluorophenyl)benzamide] |  |  |  |  |  | stable | stable
